Measured values taken from ChEMBL document CHEMBL5104211, “Design and synthesis of bile acid derivatives and their activity against colon cancer” (RSC Med Chem, 2022).

Tests used:
[1] = tested on: HT-29; assay: Anticancer activity against human HT-29 cells assessed as inhibition of cell proliferation by MTT assay; assay type: functional, cell-based
[2] = tested on: Huh-7; assay: Anticancer activity against human Huh-7 cells assessed as inhibition of cell proliferation by MTT assay; assay type: functional, cell-based
[3] = tested on: RKO; assay: Anticancer activity against human RKO cells assessed as inhibition of cell proliferation by MTT assay; assay type: functional, cell-based
[4] = tested on: LoVo; assay: Anticancer activity against human LoVo cells assessed as inhibition of cell proliferation by MTT assay; assay type: functional, cell-based
[5] = tested on: HCT-116; assay: Anticancer activity against human HCT-116 cells assessed as inhibition of cell proliferation by MTT assay; assay type: functional, cell-based
[6] = tested on: A549; assay: Anticancer activity against human A549 cells assessed as inhibition of cell proliferation by MTT assay; assay type: functional, cell-based
[7] = tested on: SK-HEP1; assay: Anticancer activity against human SK-HEP1 cells assessed as inhibition of cell proliferation by MTT assay; assay type: functional, cell-based
[8] = tested on: MGC-803; assay: Anticancer activity against human MGC-803 cells assessed as inhibition of cell proliferation by MTT assay; assay type: functional, cell-based
[9] = tested on: SW480; assay: Anticancer activity against human SW480 cells assessed as inhibition of cell proliferation by MTT assay; assay type: functional, cell-based
[10] = Cytotoxicity against human WI-38 cells assessed as inhibition of cell proliferation by MTT assay; assay type: toxicity, cell-based
[11] = tested on: HCT-116; assay: Induction of apoptosis in human HCT-116 cells assessed as late apoptotic cells at 30 micromol/L incubated for 48 hrs by annexin V-FITC and propidium iodide staining based flow cytometry analysis (reference value: 7.13%); assay type: functional; settings: dose 30 µmol/L, at 30 µM
[12] = tested on: HCT-116; assay: Induction of apoptosis in human HCT-116 cells assessed as early apoptotic cells at 30 micromol/L incubated for 48 hrs by annexin V-FITC and propidium iodide staining based flow cytometry analysis (reference value: 2.69%); assay type: functional; settings: dose 30 µmol/L, at 30 µM
[13] = tested on: HCT-116; assay: Induction of apoptosis in human HCT-116 cells assessed as viable cells at 30 micromol/L incubated for 48 hrs by annexin V-FITC and propidium iodide staining based flow cytometry analysis (reference value: 89.29%); assay type: functional; settings: HCT-116, 48 h, dose 30 µmol/L, read-out: Activity
[14] = tested on: HCT-116; assay: Induction of apoptosis in human HCT-116 cells assessed as necrotic cells at 30 micromol/L incubated for 48 hrs by annexin V-FITC and propidium iodide staining based flow cytometry analysis (reference value: 0.88%); assay type: functional; settings: dose 30 µmol/L, at 30 µM

Row | SMILES | IC50 [1] [µM] | IC50 [2] [µM] | IC50 [3] [µM] | IC50 [4] [µM] | IC50 [5] [µM] | IC50 [6] [µM] | IC50 [7] [µM] | IC50 [8] [µM] | IC50 [9] [µM] | IC50 [10] [µM] | Activity [11] [%] | Activity [12] [%] | viability at 30 µM [13] [%] | Activity [14] [%]
1 | C[C@H](CCC(=O)O)[C@H]1CC[C@H]2[C@@H]3[C@H](O)C[C@@H]4C[C@H](O)CC[C@]4(C)[C@H]3C[C@H](O)[C@]12C [CHOLIC ACID] | > 200 | > 200 | > 200 | > 200 | > 200 | > 200 | > 200 | > 200 | > 200 | – | – | – | – | –
2 | CC(=O)Nc1ccc(OC(=O)CC[C@@H](C)[C@H]2CC[C@H]3[C@@H]4[C@H](O)C[C@@H]5C[C@H](O)CC[C@]5(C)[C@H]4C[C@H](O)[C@]23C)cc1 | 53.3 | 70.4 | 36.3 | 58 | 54.3 | 59.4 | 41.1 | 36.7 | 38.7 | > 200 | – | – | – | –
3 | C[C@H](CCC(=O)O)[C@H]1CC[C@H]2[C@@H]3CC[C@@H]4C[C@H](O)CC[C@]4(C)[C@H]3CC[C@]12C [LITHOCHOLIC ACID] | > 200 | > 200 | > 200 | > 200 | > 200 | > 200 | > 200 | > 200 | > 200 | – | – | – | – | –
4 | CC(=O)Oc1ccc(OC(=O)CC[C@@H](C)[C@H]2CC[C@H]3[C@@H]4[C@H](O)C[C@@H]5C[C@H](O)CC[C@]5(C)[C@H]4CC[C@]23C)cc1 | 56.3 | 60.7 | 142 | 76.9 | 149 | > 200 | 85 | 109 | 100 | > 200 | – | – | – | –
5 | CC(=O)Oc1ccc(OC(=O)CC[C@@H](C)[C@H]2CC[C@H]3[C@@H]4[C@@H](O)C[C@@H]5C[C@@H](O)CC[C@]5(C)[C@H]4CC[C@]23C)cc1 | 123 | 185 | 187 | 168 | 102 | 187 | 177 | 111 | > 150 | > 200 | – | – | – | –
6 | C[C@H](CCC(=O)O)[C@H]1CC[C@H]2[C@@H]3[C@@H](O)C[C@@H]4C[C@H](O)CC[C@]4(C)[C@H]3CC[C@]12C [URSODIOL] | > 200 | > 200 | > 200 | > 200 | > 200 | > 200 | > 200 | > 200 | > 200 | – | – | – | – | –
7 | C[C@H](CCC(=O)OCc1cccc(O)c1)[C@H]1CC[C@H]2[C@@H]3[C@H](O)C[C@@H]4C[C@H](O)CC[C@]4(C)[C@H]3CC[C@]12C | 33.6 | 124 | 128 | 40.9 | 42.3 | 69.4 | 99 | 49 | 42.8 | > 200 | – | – | – | –
8 | C[C@H](CCC(=O)OCc1cccc(O)c1)[C@H]1CC[C@H]2[C@@H]3[C@H](O)C[C@@H]4C[C@H](O)CC[C@]4(C)[C@H]3C[C@H](O)[C@]12C | 24.3 | 102 | 47.6 | 28.7 | 33 | 47.8 | 61.8 | 54.9 | 39.3 | > 200 | – | – | – | –
9 | C[C@H](CCC(=O)OCc1ccc([N+](=O)[O-])cc1)[C@H]1CC[C@H]2[C@@H]3[C@H](O)C[C@@H]4C[C@H](O)CC[C@]4(C)[C@H]3CC[C@]12C | 29.6 | 44.6 | 43.2 | 30.4 | 40.4 | 87.2 | 111 | 50.6 | 44.1 | > 200 | – | – | – | –
10 | C[C@H](CCC(=O)NCc1ccccc1O)[C@H]1CC[C@H]2[C@@H]3[C@H](O)C[C@@H]4C[C@H](O)CC[C@]4(C)[C@H]3C[C@H](O)[C@]12C | 32.7 | 63.7 | 48.5 | 51.1 | 36.3 | 40.5 | 25.4 | 42.3 | 35.9 | > 200 | – | – | – | –
11 | O=c1[nH]cc(F)c(=O)[nH]1 [FLUOROURACIL] | 17.5 | 1.06 | 12.7 | – | 32.3 | 109 | 12.5 | 6.06 | 21.9 | – | 69.38 | 2.13 | 27.9 | 0.59
12 | Cc1ccc(COC(=O)CC[C@@H](C)[C@H]2CC[C@H]3[C@@H]4[C@H](O)C[C@@H]5C[C@H](O)CC[C@]5(C)[C@H]4CC[C@]23C)cc1 | 25.4 | 27.2 | 42.1 | 27.4 | 53.7 | 86.6 | 54.9 | 37.5 | 43.1 | > 200 | – | – | – | –
13 | COC(=O)[C@H](CCSC)NC(=O)CC[C@@H](C)[C@H]1CC[C@H]2[C@@H]3[C@H](O)C[C@@H]4C[C@H](O)CC[C@]4(C)[C@H]3C[C@H](O)[C@]12C | 127 | 190 | 97.3 | 51.6 | 85.2 | > 200 | 173 | 96.9 | 64.7 | > 200 | – | – | – | –
14 | C[C@H](CCC(=O)OCc1cccc(O)c1)[C@H]1CC[C@H]2[C@@H]3[C@@H](O)C[C@@H]4C[C@@H](O)CC[C@]4(C)[C@H]3CC[C@]12C | 58.8 | 152 | 68.8 | 44.9 | 54.2 | > 200 | 155 | 59.4 | 99 | > 200 | – | – | – | –
15 | C[C@H](CCC(=O)O)[C@H]1CC[C@H]2[C@@H]3[C@H](O)C[C@@H]4C[C@H](O)CC[C@]4(C)[C@H]3CC[C@]12C [CHENODIOL] | > 200 | > 200 | > 200 | > 200 | > 200 | > 200 | > 200 | > 200 | > 200 | – | – | – | – | –
16 | COc1cc(COC(=O)CC[C@@H](C)[C@H]2CC[C@H]3[C@@H]4[C@H](O)C[C@@H]5C[C@H](O)CC[C@]5(C)[C@H]4CC[C@]23C)cc(OC)c1 | 26 | 63.1 | 45.4 | 21.3 | 45 | 99.6 | 65.1 | 36.6 | 37.6 | > 200 | – | – | – | –
17 | C[C@H](CCC(=O)OCc1cccc(O)c1)[C@H]1CC[C@H]2[C@@H]3CC[C@@H]4C[C@H](O)CC[C@]4(C)[C@H]3CC[C@]12C | 173 | 185 | 150 | 158 | 142 | > 200 | 125 | > 200 | 183 | > 200 | – | – | – | –
